Where two headings read alike, the source gives them in different places.
Key:
[1] = Solubility of hydrophobic drugs in water versus concentration in nanoparticles; type: physicochemical; details: nanoparticles of Example 9 / Example 10
[2] = cited from earlier work
[3] = tested on: HCC1806 tumor (triple-negative breast cancer); assay: Tumor growth in HCC1806 tumor inoculated mice; type: in vivo; details: 100 mg LND/kg in tris-glycine buffer, intraperitoneal injection
[4] = Solubility of peptides at pH 7.4 and 6.5 (Example 13); type: physicochemical
Description: Five pH sensitive peptides of the following sequences, […] (SEQ ID NO: 17), […] (SEQ ID NO: 18), […] (SEQ ID NO: 19), […] (SEQ ID NO: 20) and […] (SEQ ID NO: 8) were similarly synthesized by the method described in Example (1). Peptides […] (SEQ ID NO: 17) and […] (SEQ ID NO: 18) were soluble at both pH 7.4 and 6.5. Peptides […] (SEQ ID NO: 19) and […] (SEQ ID NO: 20) were insoluble at both pH 7.4 and 6.5, with […] (SEQ ID NO: 20) forming nanoparticles of about 80 nm. Peptide […] (SEQ ID NO: 8) was insoluble above about pH 6.7 forming nanoparticles of about 50 nm and soluble below about pH6.7; i.e., it undergoes a pH-induced transition at about pH6.7. Therefore, the pH ranges of the hydrophobic/hydrophilic transition and the corresponding soluble/insoluble transition of peptides and their nanoparticles may be adjusted by changing one or more features of the peptide, e.g., sequence and length, and the hydrophobic block and the functional block to which the peptide is conjugated.

SKOV3 cells = assay: Cytotoxicity by lactic dehydrogenase (LDH) assay; type: cell-based, human; details: control set as zero
Experimental: (§1) FIGS. 4A and 4B show lack of cytotoxicity of a pH sensitive peptide solution for SKOV3 cells.
(§2) Cytotoxicity, i.e., the effect of peptide on tumor cell viability, was determined using lactic dehydrogenase (LDH) assay. Cells (SKOV3 cells, a human carcinogenic cell line from ovarian cancer) were plated in 96-well plates (10,000 per well for SKOV3) and allowed to adhere overnight at 37° C. in a humidified atmosphere of 5% CO2. […] The medium was next removed, the LDH assay lysis solution was added, and the wells were kept at 37° C. for another 45 minutes. Finally, the LDH assay mixture was added and the wells were held at room temperature for still another 20-30 minutes before the absorbance was spectrophotometrically measured at a wavelength of 490 nm on a SpectraMax (Molecular Devices). […] This was confirmed by the spectrophotometric intensity of dead cells, shown in the lower panel, which was near zero, meaning it is indistinguishable from that of the control. Therefore, the peptide itself is non-toxic and biocompatible.

[5] = Cytotoxicity by lactic dehydrogenase (LDH) assay; type: cell-based, human; details: human, SKOV3 cells, read-out: cell viability
Experimental: as §1, §2

[6] = Solubility of peptide nanoparticles as a function of pH (Example 1, FIG. 1B); type: physicochemical; details: phosphate buffer solution
Description: A pH sensitive peptide (Ac-[…]-NH2) (SEQ ID NO: 9) was synthesized by the solid phase method. Amino acids blocked by the fluorinylmethyloxycarbonyl (FMOC) group were utilized to couple to a Rink amide resin. Piperideine, N-methylmorpholine (NMM), and hexafluorophosphate (HBTU) in dimethylformamide were used to remove the FMOC group and activate amino acids. The peptide was acetylated with acetic anhydride at the N-terminus and cleaved with trifluoroacetic acid/triisopropylsilane/water (95%/2.5%/2.5%). […] Such peptide spontaneously forms nanoparticles at pH 7.4. The solubility of nanoparticles was measured as a function of pH. […] Therefore, there is a sharp transition spanning over a pH interval of only 0.1. The increasing solubility at lower pH is believed to be due to the increasing protonation of the histidine group.

Compound: O=C(O)c1nn(Cc2ccc(Cl)cc2Cl)c2ccccc12 [LND, lonidamine]
- concentration of drug in pH-sensitive peptide nanoparticle preparation [1]: 1 mg/ml
- solubility in water [2]: about 17 μg/ml
- duration of tumor growth delay effect compared to control [3]: about 10 days

Compound: CC(=O)O[C@H]1C(=O)[C@@]2(C)[C@H]([C@H](OC(=O)c3ccccc3)[C@]3(O)C[C@H](OC(=O)[C@H](O)[C@@H](NC(=O)c4ccccc4)c4ccccc4)C(C)=C1C3(C)C)[C@]1(OC(C)=O)CO[C@@H]1C[C@@H]2O [paclitaxel]
- concentration of drug in pH-sensitive peptide nanoparticle preparation [1]: 1 mg/ml
- solubility in water [2]: about 0.3 μg/ml

Compound: Ac-GFFFHGFFFH-NH2
- solubility of peptide ([4]; pH 6.5): insoluble
- solubility of peptide ([4]; pH 7.4): insoluble

Compound: Ac-GHFFHGFFFH-NH2
- solubility of peptide ([4]; pH 6.5): insoluble
- solubility of peptide ([4]; pH 7.4): insoluble

Compound: Ac-GHFFHGHFFH-NH2
- solubility of peptide ([4]; pH 6.5): soluble
- solubility of peptide ([4]; pH 7.4): soluble

Compound: Ac-HFFHGHFFHGHFFHGKK-NH2
- spectrophotometric intensity of dead cells (LDH release) (SKOV3 cells): near zero
- viability at 3 h ([5]; pH 6.8, 3 hours with peptide then 24 hours): ~100%
- viability at 3 h ([5]; pH 7.4, 3 hours with peptide then 24 hours): ~100%
- solubility of peptide and nanoparticle ([6]; above pH 7.2): completely insoluble
- solubility of peptide and nanoparticle ([6]; at pH 7.0): mostly insoluble
- solubility of peptide and nanoparticle ([6]; below pH 6.7): completely soluble
- solubility of peptide and nanoparticle ([6]; below pH 6.9): mostly soluble
- pH interval spanned by the sharp solubility transition [6]: 0.1
- pH of sudden fall indicating dissolution of peptide construct from nanoparticle ([6]; FIG. 1B): 6.9

Compound: Ac-KGGHFFHGHFFHGK-NH2
- solubility of peptide ([4]; pH 6.5): soluble
- solubility of peptide ([4]; pH 7.4): soluble

— US10058622B2, “PH-sensitive peptides and their nanoparticles for drug delivery” (THE TRUSTEES OF THE UNIVERSITY OF PENNSYLVANIA, priority 2013, dated 2018)
